Laboratory results taken from PubChem BioAssay AID224 (DTP/NCI, 2004).
Where “and” joins values, the source holds several entries; their conditions need not be identical. Equal values may be shown once. Toxic doses and inconclusive results are not listed.

Tested on: P335 leukemia ip, BDF1 mice, survival T/C %
Assay: NCI In Vivo Anticancer Drug Screen. Data for tumor model P335 Leukemia (intraperitoneal) in B6D2F1 (BDF1) mice
Conditions: endpoint: mean survival time, higher = longer survival
Experimental: The antitumor activity of compounds was measured in mice bearing transplantable tumors. Survival or tumor size were measured and the results are expressed as the measurement made in the treated group (T) divided by the measurement made in the vehicle treated control group (C). The tumor model used in this assay is P335 Leukemia (intraperitoneal) in B6D2F1 (BDF1) mice

[1] = dose: 18.75 mg/kg/injection, schedule: Q01DX Z (ip), vehicle: carboxymethylcellulose (CMC)
[2] = dose: 37.5 mg/kg/injection, schedule: Q01DX Z (ip), vehicle: carboxymethylcellulose (CMC)
[3] = dose: 75.0 mg/kg/injection, schedule: Q01DX Z (ip), vehicle: carboxymethylcellulose (CMC)
[4] = dose: 25.0 mg/kg/injection, schedule: Q01DX Z (ip), vehicle: carboxymethylcellulose (CMC)
[5] = dose: 50.0 mg/kg/injection, schedule: Q01DX Z (ip), vehicle: carboxymethylcellulose (CMC)
[6] = dose: 100.0 mg/kg/injection, schedule: Q01DX Z (ip), vehicle: carboxymethylcellulose (CMC)
[7] = dose: 200.0 mg/kg/injection, schedule: Q01DX Z (ip), vehicle: carboxymethylcellulose (CMC)
[8] = dose: 500.0 mg/kg/injection, schedule: Q01DX Z (ip), vehicle: water
[9] = dose: 1000.0 mg/kg/injection, schedule: Q01DX Z (ip), vehicle: water
[10] = dose: 9.4 mg/kg/injection, schedule: Q01DX Z (ip), vehicle: carboxymethylcellulose (CMC)
[11] = dose: 4.0 mg/kg/injection, schedule: Q01DX Z (ip), vehicle: carboxymethylcellulose (CMC)
[12] = dose: 8.0 mg/kg/injection, schedule: Q01DX Z (ip), vehicle: carboxymethylcellulose (CMC)
[13] = dose: 16.0 mg/kg/injection, schedule: Q01DX Z (ip), vehicle: carboxymethylcellulose (CMC)

SMILES: OCC1OC(n2cnc3c(Cl)ncnc32)C(O)C1O (stereo not drawn)
- T/C (dose: 7.8 mg/kg/injection, schedule: Q01DX Z (ip), vehicle: carboxymethylcellulose (CMC)): 101 % of control
- T/C (dose: 15.6 mg/kg/injection, schedule: Q01DX Z (ip), vehicle: carboxymethylcellulose (CMC)): 105 % of control

SMILES: COc1ccc(/C=N/NC(N)=S)cc1
- T/C [1]: 115 % of control
- T/C [2]: 108 % of control
- T/C [3]: 106 % of control
- T/C (dose: 150.0 mg/kg/injection, schedule: Q01DX Z (ip), vehicle: carboxymethylcellulose (CMC)): 96 % of control
- T/C (dose: 300.0 mg/kg/injection, schedule: Q01DX Z (ip), vehicle: carboxymethylcellulose (CMC)): 115 % of control
- T/C (dose: 300.0 mg/kg/injection, schedule: Q01DX Z (ip), vehicle: saline): 94 % of control
- T/C (dose: 600.0 mg/kg/injection, schedule: Q01DX Z (ip), vehicle: saline): 96 % of control

SMILES: O=c1[nH]c(=O)n(C2CC(O)C(CO)O2)cc1F (stereo not drawn)
- T/C [4]: 111 % of control
- T/C [5]: 104 % of control
- T/C [6]: 111 % of control
- T/C [7]: 114 % of control
- T/C (dose: 400.0 mg/kg/injection, schedule: Q01DX Z (ip), vehicle: carboxymethylcellulose (CMC)): 87 % of control
- T/C (dose: 800.0 mg/kg/injection, schedule: Q01DX Z (ip), vehicle: carboxymethylcellulose (CMC)): 86 % of control

SMILES: CSCS(=O)C[C@H](CO)NC(=O)/C=C/c1c(C)[nH]c(=O)[nH]c1=O (stereo partly drawn)
- T/C (dose: 0.12 mg/kg/injection, schedule: Q01DX Z (ip), vehicle: saline): 100 % of control
- T/C (dose: 0.25 mg/kg/injection, schedule: Q01DX Z (ip), vehicle: saline): 107 % of control
- T/C (dose: 0.5 mg/kg/injection, schedule: Q01DX Z (ip), vehicle: saline): 105 % of control
- T/C (dose: 1.0 mg/kg/injection, schedule: Q01DX Z (ip), vehicle: saline): 110 % of control

SMILES: CCN(CC)CCNc1ccc(C)c2sc3ccccc3c(=O)c12
- T/C (dose: 0.78 mg/kg/injection, schedule: Q01DX Z (ip), vehicle: methylcellulose (MC)): 89 % of control
- T/C (dose: 6.25 mg/kg/injection, schedule: Q01DX Z (ip), vehicle: methylcellulose (MC)): 92 % of control
- T/C (dose: 50.0 mg/kg/injection, schedule: Q01DX Z (ip), vehicle: methylcellulose (MC)): 89 % of control
- T/C (dose: 100.0 mg/kg/injection, schedule: Q01DX Z (ip), vehicle: methylcellulose (MC)): 93 % of control

SMILES: CCN(CC)C(=S)S
- T/C (dose: 125.0 mg/kg/injection, schedule: Q01DX Z (ip), vehicle: other): 92 % of control
- T/C (dose: 250.0 mg/kg/injection, schedule: Q01DX Z (ip), vehicle: other): 105 % of control
- T/C (dose: 500.0 mg/kg/injection, schedule: Q01DX Z (ip), vehicle: other): 106 % of control
- T/C [8]: 102 % of control
- T/C (dose: 1000.0 mg/kg/injection, schedule: Q01DX Z (ip), vehicle: other): 103 % of control
- T/C [9]: 120 % of control

SMILES: O=C(Nc1ccc(C2=NCCN2)cc1)c1ccc(C(=O)Nc2ccc(C3=NCCN3)cc2)cc1
- T/C [4]: 112 % of control
- T/C [5]: 93 % of control
- T/C [6]: 112 % of control
- T/C [7]: 179 % of control

SMILES: CCCCn1cnc2c(=S)nc[nH]c21
- T/C (dose: 0.4 mg/kg/injection, schedule: Q01DX Z (ip), vehicle: carboxymethylcellulose (CMC)): 89 % of control
- T/C (dose: 0.8 mg/kg/injection, schedule: Q01DX Z (ip), vehicle: carboxymethylcellulose (CMC)): 87 % of control
- T/C (dose: 1.6 mg/kg/injection, schedule: Q01DX Z (ip), vehicle: carboxymethylcellulose (CMC)): 87 % of control

SMILES: O=C(Nc1ccc(C2=NCCN2)cc1)c1cccc(C(=O)Nc2ccc(C3=NCCN3)cc2)c1
- T/C [10]: 98 % of control
- T/C [1]: 114 % of control
- T/C [2]: 123 % of control
- T/C [3]: 98 % of control

SMILES: Cc1cc(N(CCCl)CCCl)ccc1N=Nc1ccccc1C(=O)O
- T/C (dose: 0.12 mg/kg/injection, schedule: Q01DX Z (ip), vehicle: carboxymethylcellulose (CMC)): 90 % of control
- T/C (dose: 0.23 mg/kg/injection, schedule: Q01DX Z (ip), vehicle: carboxymethylcellulose (CMC)): 106 % of control
- T/C (dose: 0.47 mg/kg/injection, schedule: Q01DX Z (ip), vehicle: carboxymethylcellulose (CMC)): 106 % of control
- T/C (dose: 0.94 mg/kg/injection, schedule: Q01DX Z (ip), vehicle: carboxymethylcellulose (CMC)): 94 % of control

SMILES: O=C(Nc1ccc(C2=NCCCN2)cc1)c1ccc(NC(=O)c2ccc(C3=NCCCN3)cc2)cc1
- T/C [11]: 168 % of control
- T/C [12]: 176 % of control
- T/C [13]: 108 % of control

SMILES: CC(=O)O[C@]1(C(C)=O)CC[C@H]2[C@@H]3C[C@H](C)C4=CC(=O)C=C[C@]4(C)[C@@]3(F)[C@@H](O)C[C@@]21C
- T/C (dose: 0.63 mg/kg/injection, schedule: Q01DX Z (sc), vehicle: steriod suspending solution): 107 % of control
- T/C (dose: 1.25 mg/kg/injection, schedule: Q01DX Z (sc), vehicle: steriod suspending solution): 98 % of control
- T/C (dose: 2.5 mg/kg/injection, schedule: Q01DX Z (sc), vehicle: steriod suspending solution): 103 % of control
- T/C (dose: 5.0 mg/kg/injection, schedule: Q01DX Z (sc), vehicle: steriod suspending solution): 90 % of control
- T/C (dose: 10.0 mg/kg/injection, schedule: Q01DX Z (sc), vehicle: steriod suspending solution): 119 % of control
- T/C (dose: 20.0 mg/kg/injection, schedule: Q01DX Z (sc), vehicle: steriod suspending solution): 87 % of control

SMILES: [I][Hg][CH2]C1COC([CH2][Hg][I])CO1 (stereo not drawn)
- T/C (dose: 3.75 mg/kg/injection, schedule: Q01DX Z (ip), vehicle: carboxymethylcellulose (CMC)): 110 % of control

SMILES: CCN(CC)c1ccc2cc3ccc(=[N+](CC)CC)cc-3oc2c1
- T/C (dose: 0.31 mg/kg/injection, schedule: Q01DX Z (ip), vehicle: carboxymethylcellulose (CMC)): 87 % of control
- T/C (dose: 0.62 mg/kg/injection, schedule: Q01DX Z (ip), vehicle: carboxymethylcellulose (CMC)): 97 % of control and 98 % of control
- T/C (dose: 1.25 mg/kg/injection, schedule: Q01DX Z (ip), vehicle: carboxymethylcellulose (CMC)): 108 % of control and 123 % of control

SMILES: CCCCNc1ncnc2c1cnn2C
- T/C [11]: 86 % of control
- T/C [12]: 86 % of control
- T/C [13]: 96 % of control
- T/C (dose: 31.25 mg/kg/injection, schedule: Q01DX Z (ip), vehicle: carboxymethylcellulose (CMC)): 101 % of control
- T/C (dose: 62.5 mg/kg/injection, schedule: Q01DX Z (ip), vehicle: carboxymethylcellulose (CMC)): 93 % of control

SMILES: C[C@@H]1C[C@@H]([C@H](O)CC2CC(=O)NC(=O)C2)C(=O)[C@@H](C)C1
- T/C (dose: 0.78 mg/kg/injection, schedule: Q01DX Z (ip), vehicle: water): 113 % of control
- T/C (dose: 1.56 mg/kg/injection, schedule: Q01DX Z (ip), vehicle: water): 106 % of control and 112 % of control
- T/C (dose: 3.12 mg/kg/injection, schedule: Q01DX Z (ip), vehicle: water): 89 % of control
- T/C (dose: 6.25 mg/kg/injection, schedule: Q01DX Z (ip), vehicle: water): 100 % of control
- T/C (dose: 12.5 mg/kg/injection, schedule: Q01DX Z (ip), vehicle: water): 106 % of control
- T/C (dose: 25.0 mg/kg/injection, schedule: Q01DX Z (ip), vehicle: water): 100 % of control
- T/C (dose: 50.0 mg/kg/injection, schedule: Q01DX Z (ip), vehicle: water): 111 % of control

SMILES: Nc1nc(SCc2ccccc2)c2[nH]cnc2n1
- T/C (dose: 2.35 mg/kg/injection, schedule: Q01DX Z (ip), vehicle: carboxymethylcellulose (CMC)): 87 % of control
- T/C [10]: 108 % of control
- T/C [1]: 87 % of control

SMILES: O=c1cnn(C2OC(CO)C(O)C2O)c(=O)[nH]1 (stereo not drawn)
- T/C (dose: 0.98 mg/kg/injection, schedule: Q01DX Z (ip), vehicle: water): 102 % of control
- T/C (dose: 1.0 mg/kg/injection, schedule: Q01DX Z (ip), vehicle: water): 95 % of control
- T/C (dose: 1.95 mg/kg/injection, schedule: Q01DX Z (ip), vehicle: water): 115 % of control
- T/C (dose: 2.0 mg/kg/injection, schedule: Q01DX Z (ip), vehicle: water): 98 % of control
- T/C (dose: 3.9 mg/kg/injection, schedule: Q01DX Z (ip), vehicle: water): 105 % of control
- T/C (dose: 7.8 mg/kg/injection, schedule: Q01DX Z (ip), vehicle: water): 112 % of control
- T/C (dose: 8.0 mg/kg/injection, schedule: Q01DX Z (ip), vehicle: water): 93 % of control
- T/C (dose: 15.6 mg/kg/injection, schedule: Q01DX Z (ip), vehicle: water): 152 % of control
- T/C (dose: 250.0 mg/kg/injection, schedule: Q01DX Z (ip), vehicle: water): 101 % of control
- T/C [8]: 104 % of control
- T/C [9]: 112 % of control
